Data taken from patent publication US20230085307A1, “PYRIDAZINONE COMPOUND AND HERBICIDE” (NISSAN CHEMICAL CORPORATION, priority 2019, published 2023).

How the values were obtained:
windgrass = experiment: Test Example 5: herbicidal effect by foliage application, plastic box (Table 20, symbol L); assay type: in vivo, windgrass (Apera spica-venti); settings: foliage application, three weeks after application
Summary of the method: (§1)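 Foliar spray test: emulsion formulation diluted in water to a set application rate, sprayed onto 14-day-old plants raised in diluvial soil at 25° C to 30° C under glass. Both herbicidal effect and crop effect rated visually three weeks later.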

green foxtail = experiment: Test Example 5: herbicidal effect by foliage application, plastic box (Table 20, symbol G); assay type: in vivo, green foxtail (Setaria viridis); settings: foliage application, three weeks after application
Summary of the method: as §1

velvetleaf = experiment: Test Example 5: herbicidal effect by foliage application, plastic box (Table 20, symbol M); assay type: in vivo, velvetleaf (Abutilon theophrasti); settings: foliage application, three weeks after application
Summary of the method: as §1

Italian ryegrass = experiment: Test Example 5: herbicidal effect by foliage application, plastic box (Table 20, symbol K); assay type: in vivo, Italian ryegrass (Lolium multiflorum); settings: foliage application, three weeks after application
Summary of the method: as §1

barnyard grass [1] = experiment: Test Example 5: herbicidal effect by foliage application, plastic box (Table 20, symbol H); assay type: in vivo, barnyard grass (Echinochloa crus-galli); settings: foliage application, three weeks after application
Summary of the method: as §1

redroot pigweed = experiment: Test Example 5: herbicidal effect by foliage application, plastic box (Table 20, symbol N); assay type: in vivo, redroot pigweed (Amaranthus retroflexus); settings: foliage application, three weeks after application
Summary of the method: as §1

southern crabgrass = experiment: Test Example 5: herbicidal effect by foliage application, plastic box (Table 20, symbol F); assay type: in vivo, southern crabgrass (Digitaria ciliaris); settings: foliage application, three weeks after application
Summary of the method: as §1

rice flat sedge = experiment: Test Example 3: herbicidal effect by foliage application, Wagner pot (Table 18, symbol E); assay type: in vivo, rice flat sedge (Cyperus iria)
Summary of the method: (§2)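 Plants were sown in alluvial soil held under 0.1–0.5 cm standing water and grown 14 days in a greenhouse at 25–30 °C. An emulsifiable formulation, water-diluted to the set dose, was then sprayed onto the foliage, and effects were scored three weeks later using previously defined criteria.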

Chinese sprangletop = experiment: Test Example 3: herbicidal effect by foliage application, Wagner pot (Table 18, symbol D); assay type: in vivo, chinese sprangletop (Leptochloa chinensis)
Summary of the method: as §2

wild oat = experiment: Test Example 5: herbicidal effect by foliage application, plastic box (Table 20, symbol I); assay type: in vivo, wild oat (Avena fatua); settings: foliage application, three weeks after application
Summary of the method: as §1

false cleavers = experiment: Test Example 5: herbicidal effect by foliage application, plastic box (Table 20, symbol Q); assay type: in vivo, false cleavers (Galium spurium); settings: foliage application, three weeks after application
Summary of the method: as §1

blackgrass = experiment: Test Example 5: herbicidal effect by foliage application, plastic box (Table 20, symbol J); assay type: in vivo, blackgrass (Alopecurus myosuroides); settings: foliage application, three weeks after application
Summary of the method: as §1

chickweed = experiment: Test Example 5: herbicidal effect by foliage application, plastic box (Table 20, symbol P); assay type: in vivo, common chickweed (Stellaria media); settings: foliage application, three weeks after application
Summary of the method: as §1

persian speedwell = experiment: Test Example 5: herbicidal effect by foliage application, plastic box (Table 20, symbol R); assay type: in vivo, Persian speedwell (Veronica persica); settings: foliage application, three weeks after application
Summary of the method: as §1

barnyard grass [2] = experiment: Test Example 3: herbicidal effect by foliage application, Wagner pot (Table 18, symbol H); assay type: in vivo, barnyard grass (Echinochloa crus-galli)
Summary of the method: as §2

lambsquarters = experiment: Test Example 5: herbicidal effect by foliage application, plastic box (Table 20, symbol O); assay type: in vivo, lambsquarters (Chenopodium album); settings: foliage application, three weeks after application
Summary of the method: as §1

CCS(=O)(=O)c1ccccc1-c1sc2ccccc2c1-c1c(O)c(C)nn(C)c1=O [1-038]
herbicidal effect grade, L: windgrass (windgrass; 123 g/ha): 0 (Herbicidal rate of 5% or less (almost no effect)) | herbicidal effect grade, G: green foxtail (green foxtail; 123 g/ha): 0 (Herbicidal rate of 5% or less (almost no effect)) | herbicidal effect grade, M: velvetleaf (velvetleaf; 123 g/ha): 0 (Herbicidal rate of 5% or less (almost no effect)) | herbicidal effect grade, K: Italian ryegrass (Italian ryegrass; 123 g/ha): 0 (Herbicidal rate of 5% or less (almost no effect)) | herbicidal effect grade, H: barnyard grass (barnyard grass [1]; 123 g/ha): 0 (Herbicidal rate of 5% or less (almost no effect)) | herbicidal effect grade, N: redroot pigweed (redroot pigweed; 123 g/ha): 0 (Herbicidal rate of 5% or less (almost no effect)) | herbicidal effect grade, F: southern crabgrass (southern crabgrass; 123 g/ha): 0 (Herbicidal rate of 5% or less (almost no effect)) | herbicidal effect on E (rice flat sedge), rating 0-5 (rice flat sedge; 123 g/ha): 3 (Herbicidal rate of 40% or more and less than 70%) | herbicidal effect on D (Chinese sprangletop), rating 0-5 (Chinese sprangletop; 123 g/ha): 4 (Herbicidal rate of 70% or more and less than 90%) | herbicidal effect grade, I: wild oat (wild oat; 123 g/ha): 0 (Herbicidal rate of 5% or less (almost no effect)) | herbicidal effect grade, Q: false cleavers (false cleavers; 123 g/ha): 3 (Herbicidal rate of 40% or more and less than 70%) | herbicidal effect grade, J: blackgrass (blackgrass; 123 g/ha): 0 (Herbicidal rate of 5% or less (almost no effect)) | herbicidal effect grade, P: chickweed (chickweed; 123 g/ha): 5 (Herbicidal rate of 90% or more (almost completely withered)) | herbicidal effect grade, R: persian speedwell (persian speedwell; 123 g/ha): 0 (Herbicidal rate of 5% or less (almost no effect)) | herbicidal effect on H (barnyard grass), rating 0-5 (barnyard grass [2]; 123 g/ha): 0 (Herbicidal rate of 5% or less (almost no effect)) | herbicidal effect grade, O: lambsquarters (lambsquarters; 123 g/ha): 0 (Herbicidal rate of 5% or less (almost no effect))

Cc1nn(C)c(=O)c(-c2c(-c3ccc(N(C)C)cc3)sc3ccccc23)c1O [1-039]
herbicidal effect grade, L: windgrass (windgrass; 295 g/ha): 0 (Herbicidal rate of 5% or less (almost no effect)) | herbicidal effect grade, G: green foxtail (green foxtail; 295 g/ha): 4 (Herbicidal rate of 70% or more and less than 90%) | herbicidal effect grade, M: velvetleaf (velvetleaf; 295 g/ha): 3 (Herbicidal rate of 40% or more and less than 70%) | herbicidal effect grade, K: Italian ryegrass (Italian ryegrass; 295 g/ha): 2 (Herbicidal rate of 20% or more and less than 40%) | herbicidal effect grade, H: barnyard grass (barnyard grass [1]; 295 g/ha): 0 (Herbicidal rate of 5% or less (almost no effect)) | herbicidal effect grade, N: redroot pigweed (redroot pigweed; 295 g/ha): 5 (Herbicidal rate of 90% or more (almost completely withered)) | herbicidal effect grade, F: southern crabgrass (southern crabgrass; 295 g/ha): 3 (Herbicidal rate of 40% or more and less than 70%) | herbicidal effect on E (rice flat sedge), rating 0-5 (rice flat sedge; 295 g/ha): 3 (Herbicidal rate of 40% or more and less than 70%) | herbicidal effect on D (Chinese sprangletop), rating 0-5 (Chinese sprangletop; 295 g/ha): 1 (Herbicidal rate of 5% or more and less than 20%) | herbicidal effect grade, I: wild oat (wild oat; 295 g/ha): 0 (Herbicidal rate of 5% or less (almost no effect)) | herbicidal effect grade, Q: false cleavers (false cleavers; 295 g/ha): 0 (Herbicidal rate of 5% or less (almost no effect)) | herbicidal effect grade, J: blackgrass (blackgrass; 295 g/ha): 1 (Herbicidal rate of 5% or more and less than 20%) | herbicidal effect grade, P: chickweed (chickweed; 295 g/ha): 5 (Herbicidal rate of 90% or more (almost completely withered)) | herbicidal effect grade, R: persian speedwell (persian speedwell; 295 g/ha): 5 (Herbicidal rate of 90% or more (almost completely withered)) | herbicidal effect on H (barnyard grass), rating 0-5 (barnyard grass [2]; 295 g/ha): 3 (Herbicidal rate of 40% or more and less than 70%) | herbicidal effect grade, O: lambsquarters (lambsquarters; 295 g/ha): 4 (Herbicidal rate of 70% or more and less than 90%)

CCCC(=O)Oc1c(C)nn(C)c(=O)c1-c1c(-c2ccc(OC)cc2OC)sc2ccccc12 [1-071]
herbicidal effect grade, L: windgrass (windgrass; 320 g/ha): 0 (Herbicidal rate of 5% or less (almost no effect)) | herbicidal effect grade, G: green foxtail (green foxtail; 320 g/ha): 0 (Herbicidal rate of 5% or less (almost no effect)) | herbicidal effect grade, M: velvetleaf (velvetleaf; 320 g/ha): 3 (Herbicidal rate of 40% or more and less than 70%) | herbicidal effect grade, K: Italian ryegrass (Italian ryegrass; 320 g/ha): 0 (Herbicidal rate of 5% or less (almost no effect)) | herbicidal effect grade, H: barnyard grass (barnyard grass [1]; 320 g/ha): 0 (Herbicidal rate of 5% or less (almost no effect)) | herbicidal effect grade, N: redroot pigweed (redroot pigweed; 320 g/ha): 0 (Herbicidal rate of 5% or less (almost no effect)) | herbicidal effect grade, F: southern crabgrass (southern crabgrass; 320 g/ha): 0 (Herbicidal rate of 5% or less (almost no effect)) | herbicidal effect on E (rice flat sedge), rating 0-5 (rice flat sedge; 320 g/ha): 0 (Herbicidal rate of 5% or less (almost no effect)) | herbicidal effect on D (Chinese sprangletop), rating 0-5 (Chinese sprangletop; 320 g/ha): 0 (Herbicidal rate of 5% or less (almost no effect)) | herbicidal effect grade, I: wild oat (wild oat; 320 g/ha): 0 (Herbicidal rate of 5% or less (almost no effect)) | herbicidal effect grade, Q: false cleavers (false cleavers; 320 g/ha): 0 (Herbicidal rate of 5% or less (almost no effect)) | herbicidal effect grade, J: blackgrass (blackgrass; 320 g/ha): 0 (Herbicidal rate of 5% or less (almost no effect)) | herbicidal effect grade, P: chickweed (chickweed; 320 g/ha): 2 (Herbicidal rate of 20% or more and less than 40%) | herbicidal effect grade, R: persian speedwell (persian speedwell; 320 g/ha): 1 (Herbicidal rate of 5% or more and less than 20%) | herbicidal effect on H (barnyard grass), rating 0-5 (barnyard grass [2]; 320 g/ha): 2 (Herbicidal rate of 20% or more and less than 40%) | herbicidal effect grade, O: lambsquarters (lambsquarters; 320 g/ha): 0 (Herbicidal rate of 5% or less (almost no effect))

Cc1nn(C)c(=O)c(-c2c(-c3ccoc3)sc3ccccc23)c1O [1-081]
herbicidal effect grade, L: windgrass (windgrass; 320 g/ha): 0 (Herbicidal rate of 5% or less (almost no effect)) | herbicidal effect grade, G: green foxtail (green foxtail; 320 g/ha): 0 (Herbicidal rate of 5% or less (almost no effect)) | herbicidal effect grade, M: velvetleaf (velvetleaf; 320 g/ha): 3 (Herbicidal rate of 40% or more and less than 70%) | herbicidal effect grade, K: Italian ryegrass (Italian ryegrass; 320 g/ha): 3 (Herbicidal rate of 40% or more and less than 70%) | herbicidal effect grade, H: barnyard grass (barnyard grass [1]; 320 g/ha): 0 (Herbicidal rate of 5% or less (almost no effect)) | herbicidal effect grade, N: redroot pigweed (redroot pigweed; 320 g/ha): 2 (Herbicidal rate of 20% or more and less than 40%) | herbicidal effect grade, F: southern crabgrass (southern crabgrass; 320 g/ha): 0 (Herbicidal rate of 5% or less (almost no effect)) | herbicidal effect on E (rice flat sedge), rating 0-5 (rice flat sedge; 320 g/ha): 4 (Herbicidal rate of 70% or more and less than 90%) | herbicidal effect on D (Chinese sprangletop), rating 0-5 (Chinese sprangletop; 320 g/ha): 0 (Herbicidal rate of 5% or less (almost no effect)) | herbicidal effect grade, I: wild oat (wild oat; 320 g/ha): 0 (Herbicidal rate of 5% or less (almost no effect)) | herbicidal effect grade, Q: false cleavers (false cleavers; 320 g/ha): 2 (Herbicidal rate of 20% or more and less than 40%) | herbicidal effect grade, J: blackgrass (blackgrass; 320 g/ha): 0 (Herbicidal rate of 5% or less (almost no effect)) | herbicidal effect grade, P: chickweed (chickweed; 320 g/ha): 3 (Herbicidal rate of 40% or more and less than 70%) | herbicidal effect grade, R: persian speedwell (persian speedwell; 320 g/ha): 4 (Herbicidal rate of 70% or more and less than 90%) | herbicidal effect on H (barnyard grass), rating 0-5 (barnyard grass [2]; 320 g/ha): 3 (Herbicidal rate of 40% or more and less than 70%) | herbicidal effect grade, O: lambsquarters (lambsquarters; 320 g/ha): 0 (Herbicidal rate of 5% or less (almost no effect))

Cc1nn(C)c(=O)c(-c2c(-c3ccc4c(c3)OCCO4)sc3ccccc23)c1OS(C)(=O)=O [1-094]
L: windgrass, herbicidal effect (windgrass; AAH 320 g/ha): 0 (Herbicidal rate of 5% or less (almost no effect)) | G: green foxtail, herbicidal effect (green foxtail; AAH 320 g/ha): 0 (Herbicidal rate of 5% or less (almost no effect)) | M: velvetleaf, herbicidal effect (velvetleaf; AAH 320 g/ha): 3 (Herbicidal rate of 40% or more and less than 70%) | K: Italian ryegrass, herbicidal effect (Italian ryegrass; AAH 320 g/ha): 0 (Herbicidal rate of 5% or less (almost no effect)) | H: barnyard grass, herbicidal effect (barnyard grass [1]; AAH 320 g/ha): 0 (Herbicidal rate of 5% or less (almost no effect)) | N: redroot pigweed, herbicidal effect (redroot pigweed; AAH 320 g/ha): 1 (Herbicidal rate of 5% or more and less than 20%) | F: southern crabgrass, herbicidal effect (southern crabgrass; AAH 320 g/ha): 0 (Herbicidal rate of 5% or less (almost no effect)) | herbicidal effect on E (rice flat sedge), rating 0-5 (rice flat sedge; 320 g/ha): 3 (Herbicidal rate of 40% or more and less than 70%) | herbicidal effect on D (Chinese sprangletop), rating 0-5 (Chinese sprangletop; 320 g/ha): 0 (Herbicidal rate of 5% or less (almost no effect)) | I: wild oat, herbicidal effect (wild oat; AAH 320 g/ha): 0 (Herbicidal rate of 5% or less (almost no effect)) | Q: false cleavers, herbicidal effect (false cleavers; AAH 320 g/ha): 0 (Herbicidal rate of 5% or less (almost no effect)) | J: blackgrass, herbicidal effect (blackgrass; AAH 320 g/ha): 0 (Herbicidal rate of 5% or less (almost no effect)) | P: chickweed, herbicidal effect (chickweed; AAH 320 g/ha): 0 (Herbicidal rate of 5% or less (almost no effect)) | R: persian speedwell, herbicidal effect (persian speedwell; AAH 320 g/ha): 4 (Herbicidal rate of 70% or more and less than 90%) | herbicidal effect on H (barnyard grass), rating 0-5 (barnyard grass [2]; 320 g/ha): 3 (Herbicidal rate of 40% or more and less than 70%) | O: lambsquarters, herbicidal effect (lambsquarters; AAH 320 g/ha): 1 (Herbicidal rate of 5% or more and less than 20%)
